Measured values: patent US20250281507A1, “METHODS OF TREATING NEPHROTIC SYNDROME” (The Research Institute at Nationwide Children's Hospital, priority 2021, published 2025)
Several values for one entry are separate records, joined by “and”; a condition that tells them apart may be missing. Identical values can stand only once.

Key:
Assay type in all cases: in vivo, human
children with NS [1] = assay: Proteinuria (urine protein to creatinine ratio, UPCR) before and after addition of pioglitazone
Excerpt: (§1) In the following clinical studies, the efficacy and safety of adding pioglitazone to reduce proteinuria in children with NS was examined. All children with NS identified worldwide to have been treated with pioglitazone were included, with no patients excluded. Each patient had pioglitazone added to their other NS medications at the discretion of their treating pediatric nephrologist. All patient records were reviewed in a de-identified manner, with prior ethics committee approval at each institution. Data were analyzed based on defined time periods before and after the addition of pioglitazone. Patients were defined as having responded to pioglitazone (i.e., Responders) if their urine protein to creatinine ratio (UPCR, mg/mg) decreased from the period 0-1 month pre-pioglitazone to the period 0-1 month post-pioglitazone. Glomerular filtration rate estimation (eGFR) in patients <18 years was calculated using the revised Schwartz equation. In patients >18 years, eGFR was calculated as the mean of the revised Schwartz and CKD-EPI creatinine equations. Quantitative data, such as patient age, duration of NS, pioglitazone dosage, and outcomes of UPCR, TIS, and serum albumin, were summarized as means (standard errors of mean), while categorical data such as renal survival status were summarized as frequency (percent). Due to a small sample size, Responders and Non-responders were compared using Wilcoxon Rank Sum tests on quantitative variables and Fisher's exact tests on categorical variables. For both Responders and Non-responders, pre-pioglitazone to post-pioglitazone initiation changes in UPCR, TIS, and serum albumin levels were analyzed using Wilcoxon Signed Rank tests. Numbers of hospitalizations pre-pioglitazone and post-pioglitazone initiation were analyzed and compared using Poisson distributions. Statistical significance was assessed at both the 0.05 and 0.10 levels. All analyses were conducted using SPSS software ver. 26 (IBM, Armonk, NY, USA).

children with NS [2] = assay: Renal survival, renal function, remission and prednisone taper on pioglitazone
Excerpt: as §1

children with NS [3] = assay: Hospitalizations, edema, hypoglycemia and side effects on pioglitazone
Excerpt: as §1

[4] = Patient 1 (Responder), pre-PIO 8.5
[5] = Patient 1 (Responder), vs 0-1 mo pre-PIO
[6] = Patient 2 (Responder), pre-PIO 6
[7] = Patient 2 (Responder), vs 0-1 mo pre-PIO
[8] = Patient 3 (Responder), pre-PIO 11.2
[9] = Patient 3 (Responder), vs 0-1 mo pre-PIO
[10] = Patient 5 (Non-responder), pre-PIO 0.46
[11] = Patient 5 (Non-responder), vs 0-1 mo pre-PIO
[12] = Patient 6 (Responder), pre-PIO 2.16
[13] = Patient 6 (Responder), vs 0-1 mo pre-PIO
[14] = Patient 7 (Non-responder), pre-PIO 7.5
[15] = Patient 7 (Non-responder), vs 0-1 mo pre-PIO
[16] = Patient 8 (Responder), pre-PIO 4.66
[17] = Patient 8 (Responder), vs 0-1 mo pre-PIO
[18] = mean of 5 Responders, pre-PIO 6.50
[19] = mean of 5 Responders, vs 0-1 mo pre-PIO

CCc1ccc(CCOc2ccc(CC3SC(=O)NC3=O)cc2)nc1 (centres unmarked) [pioglitazone]
UPCR in Responders, range (children with NS [1]; 5-7 months post-pioglitazone): 0.06 to 0.5 mg/mg
Patients with prompt and significant reductions in proteinuria (Responders) (children with NS [1]; Five of 8 pioglitazone-treated patients, UPCR decrease 0-1 mo pre- to 0-1 mo post-pioglitazone): 63%
Post-PIO UPCR (0-1 mo; mg/mg) (children with NS [1]; [4]): 4 mg/mg
Post-PIO UPCR (5-7 mo; mg/mg) (children with NS [1]; [4]): 0.2 mg/mg
% UPCR Reduction (0-1 mo) (children with NS [1]; [5]): 53% and 52.9%
% UPCR Reduction (5-7 mo) (children with NS [1]; [5]): 98% and 97.6%
Post-PIO UPCR (0-1 mo; mg/mg) (children with NS [1]; [6]): 2 mg/mg
Post-PIO UPCR (5-7 mo; mg/mg) (children with NS [1]; [6]): 0.12 mg/mg
% UPCR Reduction (0-1 mo) (children with NS [1]; [7]): 67% and 66.7%
% UPCR Reduction (5-7 mo) (children with NS [1]; [7]): 98%
Post-PIO UPCR (0-1 mo; mg/mg) (children with NS [1]; [8]): 6.4 mg/mg
Post-PIO UPCR (5-7 mo; mg/mg) (children with NS [1]; [8]): 0.5 mg/mg
% UPCR Reduction (0-1 mo) (children with NS [1]; [9]): 43% and 42.9%
% UPCR Reduction (5-7 mo) (children with NS [1]; [9]): 96% and 95% and 95.5%
UPCR increase (children with NS [1]; Patient 4 (Non-responder), over the next 1 month): 133%
Post-PIO UPCR (0-1 mo; mg/mg) (children with NS [1]; Patient 4 (Non-responder), pre-PIO 28.8, urine obtained soon after IV albumin infusion): 67.0 mg/mg and 67 mg/mg
% UPCR Reduction (0-1 mo) (children with NS [1]; Patient 4 (Non-responder), vs 0-1 mo pre-PIO): −133%
UPCR increase (children with NS [1]; Patient 5 (Non-responder), 1-month post-PIO): 139%
increase in proteinuria (UPCR) (children with NS [1]; Patient 5 (Non-responder), 5-7 months post-pioglitazone): 24%
Post-PIO UPCR (0-1 mo; mg/mg) (children with NS [1]; [10]): 1.1 mg/mg
Post-PIO UPCR (5-7 mo; mg/mg) (children with NS [1]; [10]): 0.57 mg/mg
% UPCR Reduction (0-1 mo) (children with NS [1]; [11]): −139%
% UPCR Reduction (5-7 mo) (children with NS [1]; [11]): −23.9%
Post-PIO UPCR (0-1 mo; mg/mg) (children with NS [1]; [12]): 1.09 mg/mg
Post-PIO UPCR (5-7 mo; mg/mg) (children with NS [1]; [12]): 0.11 mg/mg
% UPCR Reduction (0-1 mo) (children with NS [1]; [13]): 50% and 49.5%
% UPCR Reduction (5-7 mo) (children with NS [1]; [13]): 95% and 94.9%
increase in proteinuria (UPCR) (children with NS [1]; Patient 7 (Non-responder), 5-7 months post-pioglitazone): 77%
UPCR increase (children with NS [1]; Patient 7 (Non-responder), over the next 1 month): 13%
Post-PIO UPCR (0-1 mo; mg/mg) (children with NS [1]; [14]): 8.5 mg/mg
Post-PIO UPCR (5-7 mo; mg/mg) (children with NS [1]; [14]): 13.3 mg/mg
% UPCR Reduction (0-1 mo) (children with NS [1]; [15]): −13.3%
% UPCR Reduction (5-7 mo) (children with NS [1]; [15]): 77.3%
Post-PIO UPCR (0-1 mo; mg/mg) (children with NS [1]; [16]): 0.08 mg/mg
Post-PIO UPCR (5-7 mo; mg/mg) (children with NS [1]; [16]): 0.06 mg/mg
% UPCR Reduction (0-1 mo) (children with NS [1]; [17]): 98% and 98.3%
% UPCR Reduction (5-7 mo) (children with NS [1]; [17]): 99% and 98.7%
Post-PIO UPCR (0-1 mo; mg/mg), Mean (SEM) (children with NS [1]; [18]): 2.7 mg/mg and 2.71 mg/mg
Post-PIO UPCR (5-7 mo; mg/mg), Mean (SEM) (children with NS [1]; [18]): 0.2 mg/mg and 0.20 mg/mg
% UPCR Reduction (0-1 mo), Mean (SEM) (children with NS [1]; [19]): 62% and 62.1%
% UPCR Reduction (5-7 mo), Mean (SEM) (children with NS [1]; [19]): 97%
Post-PIO UPCR (5-7 mo; mg/mg), Mean (SEM) (children with NS [1]; mean of Non-responders (Patient 4 ESRD)): 6.94 mg/mg
% UPCR Reduction (5-7 mo), Mean (SEM) (children with NS [1]; mean of Non-responders (Patient 4 NA)): −50.6%
Post-PIO UPCR (0-1 mo; mg/mg), Mean (SEM) (children with NS [1]; mean of Non-responders, pre-PIO 12.3): 25.5 mg/mg
% UPCR Reduction (0-1 mo), Mean (SEM) (children with NS [1]; mean of Non-responders, vs 0-1 mo pre-PIO): −95.0%
UPCR reduction in Responders, range (children with NS [1]; within the first month of pioglitazone treatment): 43-98%
UPCR in Responders, range (children with NS [1]; within the first month of pioglitazone treatment, pre range 2.2-11.2): 0.1 to 6.4 mg/mg
Renal Survival, % survival (children with NS [2]; 3 Non-responders): 33.3%
Renal Survival, % survival (children with NS [2]; 5 Responders): 100%
Renal Survival (children with NS [2]; Patient 1 (Responder)): yes
renal function (children with NS [2]; Patient 1, during pioglitazone treatment): maintained normal renal function
Renal Survival (children with NS [2]; Patient 2 (Responder)): yes
renal function (children with NS [2]; Patient 2, during pioglitazone treatment): maintained normal renal function
PRED dose after taper (children with NS [2]; Patient 2, orally QD, from 30 mg/d): 5 mg
remission (children with NS [2]; Patient 2, pioglitazone 15 mg orally QD for 16 weeks): achieved full remission
Renal Survival (children with NS [2]; Patient 3 (Responder)): yes
Prednisone dose after decrease (children with NS [2]; Patient 3, from 40 mg/d): 20 mg/day
Renal Survival (children with NS [2]; Patient 4 (Non-responder), cFSGS, AKI at presentation): no
renal function (children with NS [2]; Patient 4, during pioglitazone treatment): renal function continued to worsen
Renal Survival (children with NS [2]; Patient 5 (Non-responder)): yes
NS relapses (children with NS [2]; Patient 5, on pioglitazone for 2.5 years): continued to have NS relapses
Renal Survival (children with NS [2]; Patient 6 (Responder)): yes
serum creatinine (children with NS [2]; Patient 6, on MMF and pioglitazone): 0.90 mg/dL
Renal Survival (children with NS [2]; Patient 7 (Non-responder)): no
renal function (children with NS [2]; Patient 7, pre-pioglitazone eGFR 44 ml/min/1.73 m^2): remained stable during the 6 months of pioglitazone treatment
Renal Survival (children with NS [2]; Patient 8 (Responder)): yes
renal function (children with NS [2]; Patient 8, during pioglitazone treatment): renal function remained normal
remission (children with NS [2]; Patient 8, following 5-7 months): remained in complete remission
PRED dose after taper (children with NS [2]; Patient 8, from 25 mg/d): 10 mg/day
required hospitalizations (children with NS [3]; 5 Responders, post-pioglitazone, 11 pre-pioglitazone): none
side effects attributable to pioglitazone (children with NS [3]; Patient 1, 7-month PIO treatment, 15 then 30 mg QD): No side effects attributable to pioglitazone were noted
side effects attributable to pioglitazone (children with NS [3]; Patient 2, 4-month treatment, 15 mg QD): no side effects attributable to pioglitazone noted
side effects attributable to pioglitazone (children with NS [3]; Patient 3, 19-month course): No side effects attributable to pioglitazone were noted
side effects attributable to pioglitazone (children with NS [3]; Patient 4, 3 weeks of treatment, 7.5 mg QD): no side effects attributable to pioglitazone were noted
side effects attributable to pioglitazone (children with NS [3]; Patient 5, 2.5 years, 45 mg QD): No side effects attributable to pioglitazone were noted
side effects attributable to pioglitazone (children with NS [3]; Patient 6, 5-year course, 30 mg QD): No side effects attributable to pioglitazone were noted
side effects (reason for stopping pioglitazone) (children with NS [3]; Patient 7, 6 months, 15 then 30 mg QD): concerns of possible association with new-onset bruising, which resolved
side effects attributable to pioglitazone (children with NS [3]; Patient 8, 30-week course, 30 mg QD): No side effects attributable to pioglitazone were noted
reductions in hospitalizations for IV albumin infusions and diuresis (children with NS [3]; Responders): 100%
children with worsening edema after pioglitazone introduction (children with NS [3]; all 8 patients): 0%
hospitalizations for IV albumin infusions to manage NS-related edema (children with NS [3]; all 8 patients, 5-7 months post-pioglitazone, 13 in the 5-7 months pre-pioglitazone): 1
adverse events attributable to pioglitazone (children with NS [3]; all patients, collective 136 months of drug exposure): no patients experienced any adverse events attributable to pioglitazone
pioglitazone-related hypoglycemia (children with NS [3]; all patients, observation period): no children with NS were noted to have pioglitazone-related hypoglycemia
